Data reported in patent publication US20210000844A1, “OPHTHALMIC COMPOSITION COMPRISING DIQUAFOSOL AND CATIONIC POLYMER” (Santen Pharmaceutical Co., Ltd., priority 2018, published 2021).

System: Cultured peripheral nerve cells (dorsal neuro ganglion neuron)
Test: Test 4: stimulatory property of diquafosol sodium to peripheral nerves (intracellular calcium fluorescence)
Format: cell-based
Conditions: stimulation control group (buffer solution instead of formulation solution); diquafosol sodium final concentration 0.3%
Procedure: The stimulatory property of diquafosol sodium to peripheral nerves in the presence of PVP which is a type of […] was examined. “PVP” denotes polyvinylpyrrolidone. “CMC-Na” denotes carboxymethylcellulose sodium. “HPMC” denotes hydroxypropylmethylcellulose. “CVP” denotes a carboxyvinyl polymer.
Cultured peripheral nerve cells (dorsal neuro ganglion neuron; purchased from Lonza Japan Ltd.) were incubated in a buffer solution containing an intracellular calcium indicator fluorescent dye (FLIPR Calcium 6 Assay Kit; Molecular Devices, LLC). 40% of the total amount of the buffer solution was replaced by each of the above-described formulation solutions. A non-stimulation group and a stimulation control group were similarly treated with the buffer solution instead of the formulation solution. The cells were left standing at room temperature, followed by starting fluorescence measurement over time with the calcium indicator dye using a fluorescence plate reader. 60 seconds after the start of the measurement, diquafosol sodium (final concentration: 0.3%) was added, and the measurement of fluorescence intensity was continued.
The maximum fluorescence intensity (RFUmax) after addition of diquafosol sodium was calculated as a relative value against the fluorescence intensity (RFU) immediately before the addition, with the fluorescence intensity (RFU) defined as 100%.

Compound: O=c1ccn([C@@H]2O[C@H](COP(=O)([O-])OP(=O)([O-])OP(=O)([O-])OP(=O)([O-])OC[C@H]3O[C@@H](n4ccc(=O)[nH]c4=O)[C@H](O)[C@@H]3O)[C@@H](O)[C@H]2O)c(=O)[nH]1.[Na+].[Na+].[Na+].[Na+] [diquafosol sodium, diquafosol tetrasodium salt]
- maximum fluorescence intensity (RFUmax) after addition of diquafosol sodium: ≥ 103.5%
